Legend:
[1] = molecular target: Serotonin receptor 1A (5-HT1A) (Homo sapiens, UniProt P08908); test: Selectivity data (Table S1); format: binding
[2] = molecular target: T1, NaDC1 (SLC13A2) (Homo sapiens, UniProt Q13183); test: Inhibition of citrate or succinate uptake in HEKNaDC1 cells; format: cell-based
T1 construct: host or cells: HEK-293, transient (Fugene HD)
T1 sequence (Q13183 1-592): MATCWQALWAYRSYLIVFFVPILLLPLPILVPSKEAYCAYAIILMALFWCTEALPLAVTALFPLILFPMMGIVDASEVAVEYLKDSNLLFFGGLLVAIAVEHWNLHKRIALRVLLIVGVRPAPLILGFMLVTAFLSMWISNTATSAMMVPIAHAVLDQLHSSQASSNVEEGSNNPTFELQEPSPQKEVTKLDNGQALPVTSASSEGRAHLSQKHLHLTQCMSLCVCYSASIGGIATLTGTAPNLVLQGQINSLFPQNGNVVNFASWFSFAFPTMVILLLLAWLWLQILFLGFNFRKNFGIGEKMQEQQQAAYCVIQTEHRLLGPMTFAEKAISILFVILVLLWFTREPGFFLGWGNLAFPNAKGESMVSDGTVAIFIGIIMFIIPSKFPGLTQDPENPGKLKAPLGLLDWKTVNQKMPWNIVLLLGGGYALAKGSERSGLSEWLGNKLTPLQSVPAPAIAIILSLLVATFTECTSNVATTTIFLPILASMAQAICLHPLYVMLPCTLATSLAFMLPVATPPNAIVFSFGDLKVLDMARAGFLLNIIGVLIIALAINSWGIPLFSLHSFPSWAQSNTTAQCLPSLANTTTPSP
From the text: Protocols to generate the stable cell line overexpressing NaCT or cell transfection with SLC13A2 or SLC13A3 can be found in the supporting information. HEK-293 cells stably transfected with the human sodium Citrate transporter SLC13A5 or transiently transfected with the human SLC13A2 or SLC13A3 transporter were removed from the flasks with dissociation buffer and re-suspended in an equal volume of growth media (DMEM, High Glucose supplemented with 10% heat inactivated fetal bovine serum and 500 μg/ml Geneticin). For the transient transfections, Geneticin was eliminated from the media. Cell suspensions were centrifuged at 1,000 rpm for approximately 5 minutes. Resulting cell pellets were re-suspended in growth media and placed in a 37 °C water bath for approximately 10 minutes prior to a final spin at 1,000 rpm. Following this spin the resulting cell pellets were re-suspended in assay buffer, 142 mM NaCl (or 142 mM choline chloride), 5 mM KCl, 1.2 mM MgSO4, 1.5 mM CaCl, 5 mM glucose and 25 mM HEPES pH 7.4. Cell suspensions were counted and the concentration adjusted as needed with assay buffer to 2e[6] viable cells /mL. 20 μL of cell suspension were added to 384-well cyotstar-T plates followed by the addition of 5 μL of 10× concentration of compound. Cells and compound were incubated at 37 °C for approximately 30 minutes prior to the addition of 25 μL of 300 μM citric acid (16 μM radiolabeled [^14C]-citric acid and 284 μM cold citric acid) to make a 150 μM final concentration of citric acid or 21 μM [^14C]-succinic acid. After substrate addition, the uptake of radioactivity was monitored on Perkin Elmer Microbeta plate reader. Data from reads between 45–90 minutes was used to assess the ability of test compounds to inhibit the uptake of citric or succinic acid. […]
were plated, and incubated for 48 hours. Following the incubation, NaDC1 and NaDC3 assays were executed identical to the procedure for NaCT. […]
The solution was heated to reflux until the total volume was reduced to ~25 mL. […]

[3] = molecular target: Adrenergic receptor, alpha-2A (ADRA2A) (Homo sapiens, UniProt P08913); test: Selectivity data (Table S1); format: binding
Chain of Adrenergic receptor, alpha-2A (ADRA2A) (P08913 whole entry): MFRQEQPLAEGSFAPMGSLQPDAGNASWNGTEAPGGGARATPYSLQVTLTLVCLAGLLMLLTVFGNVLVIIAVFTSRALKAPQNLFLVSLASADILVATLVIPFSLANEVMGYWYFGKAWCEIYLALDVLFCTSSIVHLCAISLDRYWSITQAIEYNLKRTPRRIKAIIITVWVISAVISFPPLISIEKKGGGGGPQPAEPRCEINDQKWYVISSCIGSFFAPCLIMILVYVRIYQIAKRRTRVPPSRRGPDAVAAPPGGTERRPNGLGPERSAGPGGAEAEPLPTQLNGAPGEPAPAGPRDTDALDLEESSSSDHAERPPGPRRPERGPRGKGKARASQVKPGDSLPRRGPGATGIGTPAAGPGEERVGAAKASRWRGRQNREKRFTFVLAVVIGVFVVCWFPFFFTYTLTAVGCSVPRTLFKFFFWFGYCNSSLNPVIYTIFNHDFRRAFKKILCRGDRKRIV

Chain of Serotonin receptor 1A (5-HT1A) (P08908 whole entry): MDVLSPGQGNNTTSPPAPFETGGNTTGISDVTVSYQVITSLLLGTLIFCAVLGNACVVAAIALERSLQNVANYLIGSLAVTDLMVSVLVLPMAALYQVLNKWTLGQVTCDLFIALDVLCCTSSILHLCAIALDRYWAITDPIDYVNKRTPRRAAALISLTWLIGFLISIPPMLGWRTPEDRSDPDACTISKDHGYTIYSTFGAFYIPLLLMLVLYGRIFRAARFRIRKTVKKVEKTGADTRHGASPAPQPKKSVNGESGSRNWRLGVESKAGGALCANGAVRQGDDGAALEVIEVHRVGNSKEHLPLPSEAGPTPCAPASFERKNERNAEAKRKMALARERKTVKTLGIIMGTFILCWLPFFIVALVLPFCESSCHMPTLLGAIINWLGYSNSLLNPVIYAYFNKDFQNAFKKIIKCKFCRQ

Question: What does the source list for `CC(C)(C)c1ccc(CC[C@@](O)(CC(=O)O)C(=O)O)cc1` [Compound 2]?
Answer: inhibition at 100 µM [1]: < 10%; inhibition of citrate or succinate uptake, NaDC1 ([2]; HEK-293-derived system overexpressing NaDC1): No measurable inhibition; IC50 ([2]; compound 4: mean of 2 replicates): > 100 µM; inhibition at 100 µM [3]: < 10%

Source: PMC4664966, “Discovery and characterization of novel inhibitors of the sodium-coupled citrate transporter (NaCT or SLC13A5)” (Scientific Reports, 2015)
